Where only a bound is given, the exact number is not on record here.

For orientation: IC50 means the concentration that inhibits the measured activity by half.

Test [1] concerns the target T1, Recombinant full-length human IDO1 (Homo sapiens, UniProt P14902).
T1 construct: Recombinant full-length human IDO1 with a N-terminal hexahistidine tag; hexahistidine (His6) (N); made in house; host or cells: E. coli
The test is described as follows: IDO1 enzymatic assay (NFK quantified by LCMS). The test is classed as biochemical. The settings on record: 2 nM enzyme, 5 μM L-tryptophan, pH6.5, 30 minutes pre-incubation at RT; mean values when measured multiple times; read-out: hIDO activity (IC50 in nM). In a few lines:
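IC50 comes from four-parameter logistic fits of duplicate data, with NFK quantified by LCMS and normalized to L-Trp-(indole-d5). Compound (0.5 nM–10 μM) was preincubated 30 min at RT with 2 nM E. coli-expressed IDO1 before a 30 min reaction with 5 μM tryptophan in pH 6.5 buffer containing ascorbate and methylene blue.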

In test [2] the target is T2, Recombinant human TDO comprising amino acids 19-407 (Homo sapiens, UniProt P48775).
T2 construct: Recombinant human TDO comprising amino acids 19-407 with a N-terminal hexahistidine tag; hexahistidine (His6) (N); made in house; host or cells: E. coli
Kind of test: TDO2 enzymatic assay (NFK quantified by LCMS). The test is classed as biochemical. The settings on record: 15 nM enzyme, 200 μM L-tryptophan, pH7, 30 minutes pre-incubation at RT; mean values when measured multiple times; read-out: hTDO activity (IC50 in nM). In a few lines:
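NFK formed over 30 min at RT from 200 μM L-tryptophan was measured by LCMS, normalized to d5-tryptophan, after compound (0.5 nM–10 μM, duplicates, 0.6% DMSO) was preincubated 30 min with 15 nM recombinant His-tagged TDO 19-407 in phosphate buffer pH 7. IC50 from four-parameter logistic fit; repeats averaged.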

T1 sequence (P14902 whole entry): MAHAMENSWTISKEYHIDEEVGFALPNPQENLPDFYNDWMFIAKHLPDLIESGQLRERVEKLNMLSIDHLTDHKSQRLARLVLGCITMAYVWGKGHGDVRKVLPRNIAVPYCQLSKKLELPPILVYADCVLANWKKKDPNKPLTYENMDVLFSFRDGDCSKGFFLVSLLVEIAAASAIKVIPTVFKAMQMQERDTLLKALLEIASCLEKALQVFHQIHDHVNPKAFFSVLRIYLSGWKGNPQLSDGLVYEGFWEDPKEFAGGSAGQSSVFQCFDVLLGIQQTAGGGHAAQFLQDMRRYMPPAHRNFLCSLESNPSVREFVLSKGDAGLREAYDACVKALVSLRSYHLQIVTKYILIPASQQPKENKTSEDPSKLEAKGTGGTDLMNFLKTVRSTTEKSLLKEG
T2 sequence (P48775 19-406 limits assumed): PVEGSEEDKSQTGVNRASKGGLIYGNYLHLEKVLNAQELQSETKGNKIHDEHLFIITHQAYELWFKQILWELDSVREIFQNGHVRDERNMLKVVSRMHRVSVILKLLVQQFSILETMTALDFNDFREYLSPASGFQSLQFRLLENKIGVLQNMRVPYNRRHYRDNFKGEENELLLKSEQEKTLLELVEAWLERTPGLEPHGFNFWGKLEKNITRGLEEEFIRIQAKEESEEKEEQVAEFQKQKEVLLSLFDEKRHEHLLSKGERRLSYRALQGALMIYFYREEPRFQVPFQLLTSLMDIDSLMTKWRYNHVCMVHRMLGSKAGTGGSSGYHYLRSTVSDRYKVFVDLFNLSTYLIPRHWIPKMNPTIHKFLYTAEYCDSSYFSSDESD

As to `CCNC(=O)c1ccc(-n2cc(C(O)c3c(C4CC4)sc4cncn34)nn2)cc1` (racemic) [Example 107, rac-4-{4-[(2-Cyclopropyl-imidazo[5,1-b]thiazol-3-yl)-hydroxy-methyl]-[1,2,3]triazol-1-yl}-N-ethyl-benzamide], the values for the IC50 in test [1] and in test [2] were 16.6 nM and more than 10200 nM, respectively.
In the same order, the values of `CC(C)C(=O)Nc1ccc(-n2cc(C(O)c3c(C4CC4)sc4cncn34)nn2)cc1Cl` (racemic) [Example 284, rac-N-(2-Chloro-4-{4-[(2-cyclopropyl-imidazo[5,1-b]thiazol-3-yl)-hydroxy-methyl]-[1,2,3]triazol-1-yl}-phenyl)-isobutyramide] are 273 nM and more than 10200 nM.
On to `COc1ccc(-n2nnc(C(O)c3c(C4CC4)sc4cncn34)c2I)cc1` (racemic) [Example 334, rac-(2-Cyclopropyl-imidazo[5,1-b]thiazol-3-yl)-[5-iodo-1-(4-methoxy-phenyl)-1H-[1,2,3]triazol-4-yl]-methanol], for which the IC50 in test [1] was 12.1 nM; in test [2] it was 7280 nM.
In the same order, the values of `COc1ncc(-n2cc(C(O)c3c(C4CC4)sc4cncn34)nn2)c(OC)n1` (racemic) [Example 84, rac-(2-Cyclopropyl-imidazo[5,1-b]thiazol-3-yl)-[1-(2,4-dimethoxy-pyrimidin-5-yl)-1H-[1,2,3]triazol-4-yl]-methanol] are 81.7 nM and more than 10200 nM.
In the same order, the values of `Cc1ccc(-n2cc(C(O)c3c(C4CC4)sc4cncn34)nn2)cc1O` (racemic) [Example 218, rac-5-{4-[(2-Cyclopropyl-imidazo[5,1-b]thiazol-3-yl)-hydroxy-methyl]-[1,2,3]triazol-1-yl}-2-methyl-phenol] are 24.1 nM and more than 10200 nM.
Regarding `CCc1sc2cncn2c1C(O)c1cn(-c2ccc(C(=O)NCCCOC)cc2)nn1` (racemic) [Example 126, rac-4-{4-[(2-Ethyl-imidazo[5,1-b]thiazol-3-yl)-hydroxy-methyl]-[1,2,3]triazol-1-yl}-N-(3-methoxy-propyl)-benzamide], the IC50 in test [1] was 20.1 nM; in test [2], more than 10200 nM.
In the same order, the values of `CCc1sc2cncn2c1C(O)c1cn(-c2ccc(NC(=O)OC(C)(C)C)cc2F)nn1` (racemic) [Example 245, rac-(4-{4-[(2-Ethyl-imidazo[5,1-b]thiazol-3-yl)-hydroxy-methyl]-[1,2,3]triazol-1-yl}-3-fluoro-phenyl)-carbamic Acid Tert-Butyl Ester] are 40.8 nM and 6810 nM.
On to `CCc1sc2cncn2c1C(O)c1cn(-c2ccc3[nH]c(=O)oc3c2)nn1` (racemic) [Example 181, rac-6-{4-[(2-Ethyl-imidazo[5,1-b]thiazol-3-yl)-hydroxy-methyl]-[1,2,3]triazol-1-yl}-3H-benzooxazol-2-one], for which the figures for the IC50 in test [1] and in test [2] were 7.86 nM and 4330 nM, respectively.
In the same order, the values of `CC=Cc1sc2cncn2c1C(O)c1cn(-c2ccc(OC)cc2)nn1` (racemic) [Example 263, rac-[1-(4-Methoxy-phenyl)-1H-[1,2,3]triazol-4-yl]-[((E)-2-(prop-1-enyl))-imidazo[5,1-b]thiazol-3-yl]-methanol] are 20.5 nM and 830 nM.
In the same order, the values of `CC(C)(C)OC(=O)Nc1ccc(-n2cc(C(O)c3c(-c4ccccc4)sc4cncn34)nn2)cc1` (racemic) [Example 251, rac-(4-{4-[Hydroxy-(2-phenyl-imidazo[5,1-b]thiazol-3-yl)-methyl]-[1,2,3]triazol-1-yl}-phenyl)-carbamic acid tert-butyl ester] are 569 nM and more than 10200 nM.
For `OC(c1cn(-c2nccc(Br)c2Cl)nn1)c1c(C2CC2)sc2cncn12` (racemic) [Example 200, rac-[1-(4-Bromo-3-chloro-pyridin-2-yl)-1H-[1,2,3]triazol-4-yl]-(2-cyclopropyl-imidazo[5,1-b]thiazol-3-yl)-methanol], the IC50 in test [1] is 55.4 nM; in test [2], more than 10200 nM.
Take `CCc1sc2cncn2c1C(O)c1cn(-c2ccc(NC(=O)C(C)C)cc2)nn1` (racemic) [Example 127, rac-N-(4-{4-[(2-Ethyl-imidazo[5,1-b]thiazol-3-yl)-hydroxy-methyl]-[1,2,3]triazol-1-yl}-phenyl)-isobutyramide]: the IC50 amounted to 8.21 nM in test [1] and 7750 nM in test [2].
Consider `CC(C)(C)OC(=O)Nc1ccc(-n2cc(C(O)c3c(C4CC4)sc4cncn34)nn2)c(F)c1` (racemic) [Example 151, rac-(4-{4-[(2-Cyclopropyl-imidazo[5,1-b]thiazol-3-yl)-hydroxy-methyl]-[1,2,3]triazol-1-yl}-3-fluoro-phenyl)-carbamic Acid Tert-Butyl Ester], for which the IC50 was 55.8 nM in test [1] and more than 10200 nM in test [2].
In the same order, the values of `CC(C)C(=O)Nc1ccc(-n2cc([C@H](O)c3c(C4CC4)sc4cncn34)nn2)cc1` [Example 192a, N-(4-{4-[(R)-(2-Cyclopropyl-imidazo[5,1-b]thiazol-3-yl)-hydroxy-methyl]-[1,2,3]triazol-1-yl}-phenyl)-isobutyramide] are 3.71 nM and more than 10200 nM.
In the same order, the values of `Oc1ccc(-n2cc(C(O)c3c(C4CC4)sc4cncn34)nn2)cc1` (racemic) [Example 68, rac-4-{4-[(2-Cyclopropyl-imidazo[5,1-b]thiazol-3-yl)-hydroxy-methyl]-[1,2,3]triazol-1-yl}-phenol] are 8.08 nM and more than 10200 nM.
In the same order, the values of `CC(C)(O)CCOc1ccc(-n2cc(C(O)c3c(-c4ccccc4)sc4cncn34)nn2)cc1Cl` (racemic) [Example 268, rac-4-(2-Chloro-4-{4-[hydroxy-(2-phenyl-imidazo[5,1-b]thiazol-3-yl)-methyl]-[1,2,3]triazol-1-yl}-phenoxy)-2-methyl-butan-2-ol] are 210 nM and more than 10200 nM.
Take `OC(c1cn(-c2ccc(Cl)cc2)nn1)c1c(C2CC2)sc2cncn12` (racemic) [Example 34, rac-[1-(4-Chloro-phenyl)-1H-[1,2,3]triazol-4-yl]-(2-cyclopropyl-imidazo[5,1-b]thiazol-3-yl)-methanol]: the IC50 in test [1] is 21.9 nM; in test [2] it was more than 10200 nM.
For the molecule `Cc1ccc(-n2cc(C(O)c3c(C4CC4)sc4cncn34)nn2)cc1` (racemic) [Example 4, rac-(2-Cyclopropyl-imidazo[5,1-b]thiazol-3-yl)-(1-p-tolyl-1H-[1,2,3]triazol-4-yl)-methanol], the half-maximal inhibitory concentration (IC50) was 34.5 nM in test [1] and more than 10200 nM in test [2].
On to `CCc1sc2cncn2c1C(O)c1cn(-c2ccc(N3CCOCC3)cc2)nn1` (racemic) [Example 47, rac-(2-Ethyl-imidazo[5,1-b]thiazol-3-yl)-[1-(4-morpholin-4-yl-phenyl)-1H-[1,2,3]triazol-4-yl]-methanol], for which the IC50 in test [1] was 44.4 nM; in test [2] it was more than 10200 nM.
In the same order, the values of `CC(F)(F)c1sc2cncn2c1C(O)c1cn(-c2ccc(OCC3(F)COC3)c(Cl)c2)nn1` (racemic) [Example 316, rac-{1-[3-Chloro-4-(3-fluoro-oxetan-3-ylmethoxy)-phenyl]-1H-[1,2,3]triazol-4-yl}-[2-(1,1-difluoro-ethyl)-imidazo[5,1-b]thiazol-3-yl]-methanol] are 13 nM and more than 10200 nM.
As for `CC(C)(O)CCOc1ccc(-n2cc(C(O)c3c(C4(C)CC4)sc4cncn34)nn2)cc1Cl` (racemic) [Example 303, rac-4-[2-Chloro-4-(4-{hydroxy-[2-(1-methyl-cyclopropyl)-imidazo[5,1-b]thiazol-3-yl]-methyl}-[1,2,3]triazol-1-yl)-phenoxy]-2-methyl-butan-2-ol], the IC50 in test [1] is 23.6 nM; in test [2], more than 10200 nM.
As for `OC(c1cn(-c2cnc3c(c2)CCCO3)nn1)c1c(C2CC2)sc2cncn12` (racemic) [Example 72, rac-(2-Cyclopropyl-imidazo[5,1-b]thiazol-3-yl)-[1-(3,4-dihydro-2H-pyrano[2,3-b]pyridin-6-yl)-1H-[1,2,3]triazol-4-yl]-methanol], the figures for the IC50 in test [1] and in test [2] were 35.5 nM and more than 10200 nM, respectively.
For `OC(c1ccc(-c2cccc(C(F)(F)F)c2)s1)c1c(C2CC2)sc2cncn12` (racemic) [Example 165, rac-(2-Cyclopropyl-imidazo[5,1-b]thiazol-3-yl)-[5-(3-trifluoromethyl-phenyl)-thiophen-2-yl]-methanol], the IC50 in test [1] was 716 nM; in test [2], more than 10200 nM.
In the same order, the values of `OC(c1cnn(-c2cccnc2)c1)c1c(C2CC2)sc2cncn12` (racemic) [Example 260, rac-(2-Cyclopropyl-imidazo[5,1-b]thiazol-3-yl)-(1-pyridin-3-yl-1H-pyrazol-4-yl)-methanol] are 43.2 nM and 6510 nM.
In the same order, the values of `CCOc1ncc(-n2cc(C(O)c3c(C4CC4)sc4cncn34)nn2)cc1Cl` (racemic) [Example 74, rac-[1-(5-Chloro-6-ethoxy-pyridin-3-yl)-1H-[1,2,3]triazol-4-yl]-(2-cyclopropyl-imidazo[5,1-b]thiazol-3-yl)-methanol] are 24.3 nM and more than 10200 nM.
